From paper PMC12292445, “Physiologically Based Pharmacokinetic Modeling for Predicting Drug Levels After Bariatric Surgery: Vardenafil Exposure Before vs. After Gastric Sleeve/Bypass” (Biomolecules, 2025)
≈ marks a conversion by molar mass, not a printed value. Where two headings read alike, the source gives them in different places.

Tests used:
[1] = stated in discussion, no source given; cited from earlier work
[2] = set-up: method as in earlier work; conditions: healthy fasted humans, digitized mean profile, cited from earlier work
physchem [3] = type: physicochemical; conditions: human; for solubility: thermodynamic from solid
Method: The equilibrium solubility of vardenafil in gastric content was also tested using the shake-flask method mentioned above, which followed a procedure that had been recently described. In short, excess drug was added to glass vials containing samples of gastric content aspirated from three patients (1 SG, 1 RYGB, and 1 OAGB) during bariatric procedure time. Aspiration was performed through the nasogastric tube at three time points: before, immediately after , and 24 h post-surgery. Study protocol approval was given by the Ben-Gurion University School of Medicine institutional review board (institutional board request number 0248-18-SOR), and informed consent was obtained from all the participants prior to surgery. Following gastric content collection, pH was immediately measured and recorded. […] As vardenafil hydrochloride powder modified the pH of the post-bariatric gastric fluid, pH was adjusted with a small volume pH 7 buffer, as necessary.

clinical = assay: clinical
Method: Values were either obtained from the literature, in silico predictions (ADMET Predictor® module, version 10.4.0.0; Simulations Plus Inc., Lancaster, CA, USA) based on the drug’s molecular structure, or experimentally determined. pH-dependent solubility data were input as an .spd file and used to fit the solubility factors in the solubility model. Drug dissolution along the GIT was calculated using the software default Johnson equation [58] based on the drug’s solubility and particle size. With the lack of data on commercial product drug particle size, 100 µm was chosen as an approximate value for all simulations. Regarding poor aqueous solubility, bile salts’ effect on drug solubility/dissolution was also accounted for. The drug precipitation time was set as the default 900 s. […] The distribution and elimination PK parameters of vardenafil were based on available data of in vivo plasma concentration over time following IV and PO drug administration, using the software-integrated PKPlus^TM module and optimized further while keeping the final values within the reported literature range (Table 3).

[4] = In vitro dissolution of whole tablets under pre- vs post-bariatric gastric conditions; type: physicochemical; conditions: Levitra 20 mg tablet
Method: The dissolution of whole tablet vardenafil (20 mg) products was studied in three different conditions, as previously described (n = 4 for each condition): (1) pH 1 maleic acid, 250 mL medium (pre-surgery conditions), with the USP dissolution apparatus II (Premiere 5100, Distek®, North Brunswick, NJ, USA), at 100 rpm paddle rotation; […] This rotation velocity was calculated, addressing the following parameters: the paddle size (D), volume of fluid (V), and agitation strength (ε), as follows: εlong/εshort=RPMlong3 × Dlong5/Vlong/RPMshort3 × Dshort5/Vshort These adjusted experimental conditions mimic pre- vs. post-bariatric intragastric dissolution conditions, including the pH, temperature, fluid volume, and contractility force, and were thus preferred over standard, compendial dissolution methods. Next, 300 µL samples were drawn for 90 min at 10 different time points and then filtered prior to ultra-performance liquid chromatography (UPLC) analysis (Table 1).

physchem [5] = type: physicochemical
Method: The equilibrium solubility of vardenafil was determined by the previously described shake-flask method. Four different medium pHs were used: pH 1 and pH 3 (0.2 M maleic acid), pH 5 (0.2 M acetic acid), and pH 7 (0.2 M dihydrogen phosphate). Quadruplet (n = 4) samples of each buffer pH were prepared with drug powder added in excess, until saturation, to vials with 500 µL medium solution. Vial incubation was at 37 °C, with 200 rpm sample shaking for 24 h (Orbital Shaker Incubator, MRC Laboratory Instruments, Holon, Israel). Sample contents were then transferred to Eppendorf tubes for a 10 min centrifugation (Centrifuge 5430 R, Eppendorf®, Hamburg, Germany) at 20,817 rcf and 37 °C. Obtained supernatants were diluted as needed and immediately analyzed by UPLC-PDA (Table 1).

[6] = estimated with PKPlus from in vivo IV and oral data, then optimized

CCCc1nn(C)c2c(=O)[nH]c(-c3cc(S(=O)(=O)N4CCN(C)CC4)ccc3OCC)nc12 [sildenafil]
pKa [1]: ~ 7

CCCc1nc(C)c2c(=O)[nH]c(-c3cc(S(=O)(=O)N4CCN(CC)CC4)ccc3OCC)nn12 [vardenafil]
AUC0−inf, observed ([2]; 10 mg single oral dose): 27.29 ng·h/mL
Cmax, observed ([2]; 10 mg single oral dose): 7.20 ng/mL
Tmax, observed ([2]; 10 mg single oral dose): 57 min
AUC0−inf, observed ([2]; 20 mg single oral dose): 41.86 ng·h/mL
Cmax, observed ([2]; 20 mg single oral dose): 16.30 ng/mL
Tmax, observed ([2]; 20 mg single oral dose): 46.8 min
Lower ex vivo solubility after vs. before the surgery (physchem [3]): > 500 fold
solubility (physchem [3]; pH 2, plasma or biological fluid): > 30 mg/mL
solubility (physchem [3]; pH 7, plasma or biological fluid): 0.06 mg/mL (≈ 0.123 mM)
Distribution constant k12 (clinical; [6]): 3.090 h⁻¹
Distribution constant k13 (clinical; [6]): 0.448 h⁻¹
Distribution constant k21 (clinical; [6]): 2.100 h⁻¹
Distribution constant k31 (clinical; [6]): 0.250 h⁻¹
Vd (clinical; human): 0.8 L/kg
clearance (clinical; human): 15.4 mL/min/kg
Dissolution (dose dissolved) ([4]; post-OAGB conditions, pH 7, 50 mL): 4%
Dissolution (dose dissolved) ([4]; post-SG conditions, pH 5, 50 mL): 100%
Dissolution (dose dissolved) ([4]; pre-surgery conditions, pH 1, 250 mL): 100%
solubility at 24 h (physchem [5]; 37 °C, pH 3, aqueous buffer, thermodynamic from solid): > 30 mg/mL
solubility at 24 h (physchem [5]; 37 °C, pH 5, aqueous buffer, thermodynamic from solid): 27.4 mg/mL (≈ 56.1 mM)
solubility at 24 h (physchem [5]; 37 °C, pH 7, aqueous buffer, thermodynamic from solid): 0.05 mg/mL (≈ 0.102 mM)
Decrease in saturation solubility (physchem [5]; 24 h): over 600 fold
Solubility at 37 °C (physchem [5]; 24 h, pH 1): 30 mg/mL (≈ 61.4 mM)
Solubility at 37 °C (physchem [5]; 24 h, pH 3): 30 mg/mL (≈ 61.4 mM)
solubility at 24 h (physchem [5]; pH 1): > 30 mg/mL
pKa [1]: ~ 7
